One compound from ChEMBL document CHEMBL5725901, “[7,6]-fused bicyclic antidiabetic compounds” (2018) can be followed below.

This assay deals with Free fatty acid receptor 1 (Homo sapiens, UniProt O14842). As to the kind of experiment: FLIPR Assay: FLIPR (Fluorimetric Imaging Plate Reader, Molecular Devices) assays were performed to measure agonist-induced calcium mobilization of the stable clones. For the FLIPR assay, one day before assay, GPR40/CHO NFAT BLA cells were seeded into black-wall-clear-bottom 384-well plates (Costar) at 1.4×10e4 cells/20 μL medium/well. The cells were incubated with 20 μl/well of the assay buffer (HBSS, 0.1% BSA, 20 mM HEPES, 2.5 mM probenecid, pH 7.4) containing 8 μM fluo-4,AM, 0.08% pluronic acid at room temperature for 100 minutes. Fluorescence output was measured using FLIPR. Compounds were dissolved in DMSO and diluted to desired concentrations with assay buffer. 13.3 μL/well of compound solution was added. In general terms: Calcium assays in cells follow changes in intracellular calcium, usually with a dye or a luminescent sensor.
Free fatty acid receptor 1, sequence (O14842 whole entry): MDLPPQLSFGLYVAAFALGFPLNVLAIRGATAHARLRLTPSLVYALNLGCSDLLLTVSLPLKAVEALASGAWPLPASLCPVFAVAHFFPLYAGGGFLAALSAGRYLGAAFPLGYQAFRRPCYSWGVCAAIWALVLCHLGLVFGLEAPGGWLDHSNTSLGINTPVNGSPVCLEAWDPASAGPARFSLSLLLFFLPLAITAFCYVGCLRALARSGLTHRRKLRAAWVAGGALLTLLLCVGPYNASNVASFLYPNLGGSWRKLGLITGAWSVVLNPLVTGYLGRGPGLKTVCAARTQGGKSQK

Molecules are shown by their SMILES.

For orientation: EC50 means the concentration that produces a half-maximal response. `Cc1cccc(C)c1-c1cccc(C2CCCc3cc(CCC(=O)O)ccc3O2)c1` (stereo unspecified): the EC50 is 3.3 µM.
